Source: patent US5464848A, “1,2,4-oxadiazolyl-phenoxyalkylisoxazoles and their use as antiviral agents” (Sterling Winthrop Inc., priority 1993, dated 1995)
≈ marks a conversion by molar mass, not a printed value.

Legend:
[1] = tested on: human rhinovirus serotypes, panel B; assay: MIC50/MIC80 over panel B of 10 human rhinovirus serotypes (HeLa cell CPE); assay type: cell-based; conditions: for MIC80: minimum concentration required to inhibit 80% of the tested serotypes
Experimental: (§1) They are useful in inhibiting virus replication in vitro and are primarily active against picornaviruses, including enteroviruses, echovirus and coxsackie virus, especially rhinoviruses. […] The test procedure used was as follows: The MIC values were determined by an automated tissue culture infectious dose 50% (TCID-50) assay. HeLa cells in monoloyers in 96-well cluster plates were infected with a dilution of virus which had been shown empirically to produce 80% to 100% cytopathic effect (CPE) in 3 days in the absence of drug. The compound to be tested was serially diluted through 10, 2-fold cycles and added to the infected cells. After a 3 day incubation at 33° C. and 2.5% carbon dioxide, the cells were fixed with a 5% solution of glutaraldehyde followed by staining with a 0.25% solution of crystal violet in water. The plates were then rinsed, dried, and the amount of stain remaining in the well (a measure of intact cells) was quantitated with an optical density reader. The MIC was determined to be the concentration of compound which protected 50% of the cells from virus-induced CPE relative to an untreated virus control.
(§2) In the above test procedures, representative compounds of formula I were tested against some the serotypes from either a panel of fifteen human rhinovirus (HRV) serotypes, (noted in the table as panel T) namely, HRV-2, -14, -1A, -1B, -6, -21, -22, -15, -25, -30, -50, -67, -89, -86 and -41 or against some of the serotypes from a panel of 10 human rhinovirus serotypes namely HRV-3, -4, -5, -9, -16, -18, -38, -66, -75 and -61, (noted in the table as panel B) and the MIC value, expressed in micrograms per milliliter ([…]), for each rhinovirus serotype was determined for each virus, example 1e is given as an example of the data. Then MIC50 and MIC80 values, which are the minimum concentrations of the compound required to inhibit 50% and 80%, respectively, of the tested serotypes were determined.
(§3) The following Table gives the test results for representative compounds of the invention. The panel of viruses used in the test appears before the MIC80 and MIC50 figure and the number of serotypes which the compound is tested against (N) is indicated after the MIC80 and MIC50 figure.

[2] = tested on: human rhinovirus (HRV) serotypes, panel T; assay: MIC50/MIC80 over panel T of fifteen human rhinovirus serotypes (HeLa cell CPE); assay type: cell-based; conditions: for MIC50: Human rhinovirus sp., 72 h, minimum concentration required to inhibit 50% of the tested serotypes; for MIC80: minimum concentration required to inhibit 80% of the tested serotypes
Experimental: as §1, §2, §3

Molecule	MIC50 ([1]; Human rhinovirus sp., 72 h)	MIC80 ([1]; panel B)	MIC50 ([1]; panel B, minimum concentration required to inhibit 50% of the tested serotypes)	MIC50 [2]	MIC80 [2]
Cc1cc(CCCOc2c(C)cc(-c3noc(C(F)(F)Cl)n3)cc2C)on1 [Example 54a, 5-{3-[2,6-Dimethyl-4-(5-difluorochloromehyl-1,2,4-oxadiazol-3-yl)phenoxy]-propyl}-3-methylisoxazole]	49.6 µg/mL (≈ 125 µM)	0.016 µg/mL (≈ 0.0402 µM)	–	–	–
Cc1cc(CCCOc2c(C)cc(-c3noc(C(F)(F)F)n3)cc2F)on1 [Example 60h, 5-{3-[2-Fluoro-6-methyl-4-(5-trifluoromethyl-1,2,4-oxadiazol-3-yl)phenoxy]propyl}-3-methylisoxazole]	0.328 µg/mL (≈ 0.851 µM)	0.0315 µg/mL (≈ 0.0818 µM)	–	–	–
5-{3-[2,6-Dimethyl-4-(5-difluoromethyl-1,2,4-oxadiazol-3-yl)phenoxy]-propyl}-3-methylisoxazole [Example 49g]	–	49.859 µg/mL	99 µg/mL	–	–
Cc1cc(CCCOc2c(C)cc(-c3noc(C(F)(F)F)n3)cc2Cl)on1 [Example 63d, 5-{3-[4-(5-Trifluoromethyl-1,2,4-oxadiazol-3-yl)2-chloro-6-methylphenoxy]propyl}-3-methylisoxazole]	0.304 µg/mL (≈ 0.757 µM)	0.13 µg/mL (≈ 0.324 µM)	–	–	–
Cc1cc(CCCOc2c(F)cc(-c3noc(C(F)(F)F)n3)cc2I)on1 [Example 60e, 5-{3-[2-Fluoro-6-iodo-4-(5-trifluoromethyl-1,2,4-oxadiazol-3-yl)phenoxy]propyl}-3-methylisoxazole]	99 µg/mL (≈ 199 µM)	0.4145 µg/mL (≈ 0.834 µM)	–	–	–
Cc1cc(CCCOc2c(C)cc(-c3noc(C(F)F)n3)cc2C)on1 [Example 14, 5-{3-[4-(5-Difluoromethyl-1,2,4-oxadiazol-3-yl)-2,6-dimethyl-phenoxy]propyl}-3-methylisoxazole]	–	–	–	0.054 µg/mL (≈ 0.149 µM)	0.022 µg/mL (≈ 0.0605 µM)
Cc1cc(CCCOc2c(C)cc(-c3noc(C(F)F)n3)cc2Cl)on1 [Example 49d, 5-{3-[2,-Methyl-6-Chloro-4-(5-difluoromethyl-1,2,4-oxadiazol-3-yl)phenoxy]-propyl}-3-methylisoxazole]	–	–	–	99 µg/mL (≈ 258 µM)	99 µg/mL (≈ 258 µM)
Cc1ccc(S(=O)(=O)OCc2nc(-c3cc(C)c(OCCCc4cc(C)no4)c(C)c3)no2)cc1 [Example 42, 5-{3-[2,6-Dimethyl-4-(5-(4-methylphenylsulfonyloxymethyl) -1,2,4-oxadiazol-3-yl)phenoxy]propyl}-3-methylisoxazole]	–	–	–	99 µg/mL (≈ 199 µM)	99 µg/mL (≈ 199 µM)
Cc1cc(CCCOc2c(C)cc(-c3noc(CCl)n3)cc2C)on1 [Example 10, 5-{3-[4-(5-Chloromethyl-1,2,4-oxadiazol-3-yl) -2,6-dimethylphenoxy]propyl}-3-methylisoxazole]	–	–	–	0.279 µg/mL (≈ 0.771 µM)	0.141 µg/mL (≈ 0.39 µM)
CC(=O)OCc1nc(-c2cc(C)c(OCCCc3cc(C)no3)c(C)c2)no1 [Example 9, 5-{3-[2,6-Dimethyl-4-(5-methylcarbonyloxy-methyl-1,2,4-oxadiazol-3-yl)phenoxy]propyl}-3-methylisoxazole]	–	–	–	0.279 µg/mL (≈ 0.724 µM)	0.141 µg/mL (≈ 0.366 µM)
Cc1cc(CCCOc2c(C)cc(-c3noc(CI)n3)cc2C)on1 [Example 41, 5-{3-[2,6-Dimethyl-4-(5-(iodomethyl)-1,2,4-oxadiazol-3-yl) -phenoxy]propyl}-3-methylisoxazole]	–	–	–	99 µg/mL (≈ 218 µM)	99 µg/mL (≈ 218 µM)
CCOc1cc(CCCOc2c(C)cc(-c3noc(C4CC4)n3)cc2C)on1 [Example 37, 5-{3-[4-(5-Cyclopropyl-1,2,4-oxadiazol-3-yl)-2,6-dimethyl-phenoxy]propyl}-3-ethoxyisoxazole]	–	–	–	0.352 µg/mL (≈ 0.918 µM)	0.91 µg/mL (≈ 2.37 µM)
Cc1cc(-c2noc(C(F)(F)F)n2)cc(C)c1OCCCc1cc(C(=O)O)no1 [Example 56e]	–	–	–	99 µg/mL (≈ 241 µM)	5.304 µg/mL (≈ 12.9 µM)
Cc1cc(CCCOc2c(Cl)cc(-c3noc(C(F)(F)F)n3)cc2C#N)on1 [Example 61e, 5-{3-[4-(5-Trifluoromethyl-1,2,4-oxadiazol-3-yl)2-cyano-6-chlorophenoxy]-propyl}-3-methylisoxazole]	–	–	–	0.706 µg/mL (≈ 1.71 µM)	0.3355 µg/mL (≈ 0.813 µM)
Cc1cc(CCCOc2c(C)cc(-c3noc(=O)[nH]3)cc2C)on1 [Example 8, 5-{3-[2,6-Dimethyl-4-(5-oxo-4,5-dihydro-1,2,4-oxadiazol-3-yl)phenoxy]propyl}-3-methylisoxazole]	–	–	–	99 µg/mL (≈ 301 µM)	99 µg/mL (≈ 301 µM)
Cc1cc(CCCOc2c(C)cc(-c3noc(C(Cl)Cl)n3)cc2C)on1 [Example 13, 5-{3-[4-(5-Dichloromethyl-1,2,4-oxadiazol-3-yl)-2,6-dimethyl-phenoxy]propyl}-3-methylisoxazole]	–	–	–	0.266 µg/mL (≈ 0.671 µM)	0.145 µg/mL (≈ 0.366 µM)
Cc1cc(CCCOc2c(C)cc(-c3noc(C(Cl)(Cl)Cl)n3)cc2C)on1 [Example 12, 5-{3-[2,6-Dimethyl-4-(5-trichloromethyl-1,2,4-oxadiazol-3-yl)-phenoxy]propyl}-3-methylisoxazole]	–	–	–	2.94 µg/mL (≈ 6.83 µM)	0.662 µg/mL (≈ 1.54 µM)
Cc1cc(CCCOc2c(C)cc(-c3noc(C(N)=O)n3)cc2C)on1 [Example 38, 5-{3-[4-(5-Aminocarbonyl-1,2,4-oxadiazol-3-yl)-2,6-dimethyl-phenoxy]propyl}-3-methylisoxazole]	–	–	–	99 µg/mL (≈ 278 µM)	0.839 µg/mL (≈ 2.35 µM)
CN=c1[nH]c(-c2cc(C)c(OCCCc3cc(C)no3)c(C)c2)no1 [Example 18, 5-{3-[2,6-Dimethyl-4-(5-methylimino-4,5-dihydro-1,2,4-oxadiazol-3-yl)phenoxy]propyl}-3-methylisoxazole]	–	–	–	0.325 µg/mL (≈ 0.949 µM)	0.128 µg/mL (≈ 0.374 µM)
CCOC(=O)c1cc(CCCOc2c(C)cc(-c3noc(C(F)(F)F)n3)cc2C)on1 [Example 56d, 5-{3-[2,6-Dimethyl-4-(5-trifluoromethyl-1,2,4-oxadiazol-3-yl)phenoxy]propyl}-3-(ethoxycarbonyl)isoxazole]	–	–	–	1.47 µg/mL (≈ 3.33 µM)	0.634 µg/mL (≈ 1.44 µM)
Cc1cc(-c2noc(C(F)(F)F)n2)cc(C)c1OCCCc1onc(C)c1Br [Example 57]	99 µg/mL (≈ 215 µM)	99 µg/mL (≈ 215 µM)	–	–	–
Cc1cc(CCCOc2c(C)cc(-c3noc(=N)[nH]3)cc2C)on1 [Example 15, 5-{3-[4-(5-Imino-4,5-dihydro-1,2,4-oxadiazol-3-yl)-2,6-dimethylphenoxy]propyl}-3-methylisoxazole]	–	–	–	99 µg/mL (≈ 301 µM)	99 µg/mL (≈ 301 µM)
